Measurements taken from US6046231A, “Use of 4'-bromoflavone in a cancer chemopreventative composition and method” (The Board of Trustees of the University of Illinois, priority 1999, dated 2000).
Like-named read-outs stand apart in the source and are kept apart here.

Key:
quinone reductase (QR) = assay: Effect on DMBA-induced QR activity in rat tissues; type: in vivo, Sprague Dawley rat; conditions: liver and mammary gland
Description: Effect of 4'-Bromoflavone on DMBA-induced QR Activity and Cytochrome P4501A1 Activity in Rat Tissues. At 43 days of age, Sprague Dawley rats were placed on various experimental diets (Table 1) for 1 week prior to administration of a single (i.g.) dose of DMBA (15 mg). Animals then were weighed and sacrificed by CO2 asphyxiation. Tissues (livers and mammary glands) were collected, rinsed with saline, frozen in liquid nitrogen, and stored at -80° C. until analysis. Individual tissues were homogenized in 0.05 M Tris-HCl buffer (pH 7.5) containing 0.25 M sucrose. Cytosolic and microsomal fractions were obtained through differential centrifugation. Dicumarol-sensitive QR activity was measured as described above using 50 μl of suitably diluted cytosol supernatants (in duplicate). Cytochrome P4501A1-mediated EROD activities were determined as described previously in R. Poul et al. Anal. Biochem., 107, pp. 265-275 (1980) and S. Sharma et al., Cancer Res., 54, pp. […] (1994), with slight modifications using suitably diluted microsomal protein. Enzyme activities were expressed as nmol/mg protein/min. Protein content was determined using Bradford reagent with BSA as standard, and data were presented as mean ±SE and analyzed using Student's t test (n=5).
Test animals were placed on various experimental diets for one week (Table 1) prior to a single i.g. dose of DMBA (15 mg). […]

cytochrome P-4501A1 = conditions: cited from earlier work
[1] = tested on: QR ARE-CAT construct, HepG2 cells; assay: CAT expression in HepG2 cells transfected with QR ARE-CAT; type: cell-based, human cells; rat QR gene; conditions: 10 μM, 48 h; p<0.0001; listed as 4'-BF
Description: Transcient Transfection Gene Expression Assay. Cultured HepG2 human hepatoma cells were transfected with three plasmid constructs (PDTD-1697CAT, XRE-CAT, ARE-CAT) containing various portions of the 5'-region of the QR gene fused to the CAT gene using the calcium phosphate precipitation method (J. Sambrook et al., Molecular cloning: A Laboratory Handbook, Ed. Chris Nolan, CHS Laboratory Press, 1989). After 4 hours of transfection, the cells were treated with 10% glycerol for 3 minutes and rinsed with PBS and switched to MEM, containing 100 units/ml penicillin G sodium, 100 units/ml streptomycin sulfate, nonessential amino acids, and 1 mM sodium pyruvate (Life Technologies Inc.) supplemented with 10% fetal bovine serum for 12-16 hours recovery. Then, test agents were added to the cells. After 48 hours of treatment with the test agents, cells were harvested with lysis buffer (Boehringer Mannheim Biochemical) and CAT protein expressions were assessed using a CAT ELISA kit (Boehringer Mannheim Biochemical). CAT enzyme expression was normalized for the protein content of each sample. All data were expressed as mean +/- SD. Means were compared using Student's t test with n=4.
This was further investigated in transient transfection experiments wherein human hepatoma cells were transfected with DNA constructs containing various portions of the 5' upstream promoter region of the QR gene linked to the CAT reporter gene by using the calcium phosphate precipitation method. Construct pDTD-1097CAT contains elements of the rat QR gene connected to the CAT construct gene. […]
In particular, FIG. 1 illustrates quantitation of CAT expression in HepG2 cells transfected with QR-CAT constructs. […] CAT expression (ng CAT/mg protein) was determined using a CAT ELISA, and the ratio of CAT expression between treated and control cells was calculated (ratio=treated/control).

Hepa 1c1c7 cells = assay: Hepa 1c1c7 cell viability (cytotoxicity); type: cell-based, murine; conditions: for IC50: read-out: IC50, concentration for 50% inhibition of cell viability
cytochrome P4501A1 = assay: Inhibition of TCDD-induced EROD activity; type: biochemical

Structure (SMILES): O=c1cc(-c2ccc(Br)cc2)oc2ccccc12 [4'-Bromoflavone]
- QR activity vs control (basal diet) (quinone reductase (QR); 1 week diet, DMBA 15 mg i.g.): significantly induced
- QR activity vs DMBA alone (quinone reductase (QR); DMBA and 4'-BF or 4'-BF alone): significant dose-dependent induction
- levels of cytochrome P-4501A1 (cytochrome P-4501A1): significantly increase
- levels of cytochrome P-4501A1 (cytochrome P-4501A1; listed as 4'-bromoflavone): phase I induction
- CAT expression, QR ARE-CAT [1]: significantly (P<0.0001, students t test with n=4) induced
- IC50 (Hepa 1c1c7 cells; Hepa 1c1c7 cells): ≥ 166 µM
- IC50 (Hepa 1c1c7 cells; Mus musculus, Hepa-1c1c7, Hepa 1c1c7 cells): > 166 µM
- times less toxic than sulforaphane (Hepa 1c1c7 cells; compared to sulforaphane): about 15 times
- inhibition of TCDD-induced EROD activity (cytochrome P4501A1): significantly inhibit
